Experimental data as given in ChEMBL document CHEMBL2069247, “A highly sensitive fluorescent viscosity sensor” (Bioorg Med Chem Lett, 2012).

Tests used:
HeLa [1] = assay: Drug uptake in human HeLa cells measured immediately; assay type: ADME, cell-based
HeLa [2] = assay: Drug uptake in human HeLa cells at 5 uM after 2 hrs by fluorescence microscopic analysis; assay type: ADME, cell-based

Drug uptake (HeLa [1]): Active
Drug uptake (HeLa [2]): Active
Structure (SMILES): Cn1ccc2ccc(-c3ccc4c(-c5ccccc5C(=O)O)c5ccc(=O)cc-5oc4c3)cc21
